Laboratory results: US20160038521A1, “THERAPEUTIC METHODS” (UNIVERSITY OF IOWA RESEARCH FOUNDATION, priority 2013, published 2016)
“Also recorded” adds a separate entry of the source.

Assays:
Cdc42 = Cdc42 activity (Cdc42-GTP levels) in mouse brain endothelial cells; format: cell-based; conditions: for Cdc42 activity: CLN3−/− MBEC, p<0.05
Source text: FIGS. 2A and 2B. Carbenoxolone reduces Cdc42 activity in CLN3-null JNCL mouse brain endothelial cells (MBEC). […] FIG. 3: CBX corrects Cdc42-GTP levels. […] Data represent the mean of three independent experiments, error bars±SEM (1-way ANOVA with TUKEY post-hoc, (*, p<0.05, n.s.=not significant).

[1] = test system: CLN3-null JNCL mouse brain endothelial cells; assay: Scratch wound cell migration, live cell microscopy; format: cell-based; conditions: CLN3−/− MBEC, CBX vs mock, overnight
Procedure: FIG. 4. Carbenoxolone normalizes migration of CLN3-null JNCL mouse brain endothelial cells. Cell migration induced by a scratch in cell monolayers was measured using live cell microscopy and quantified by T-Scratch software. CLN3-expressing (CLN3-R) and CLN3-null (CLN3-/-) MBEC were grown to confluence. A gap in the monolayer was made by “[…] wound”, and the rate of cell migration to fill in the gap was monitored by live cell microscopy. CLN3-/- MBEC show a delayed ability to fill in the gap. Carbenoxolone treatment corrects this defect. Cells were either treated with CBX or left untreated (mock) in the presence or absence of CBX. Data are collected overnight. Data represent the mean of three independent experiments, error bars±SEM (2-way ANOVA with Bonferroni post-hoc correction, *, p<0.05).

Cln3−/− MBECs = assay: Fluid-phase endocytosis, uptake of fluorescent dextran; format: cell-based, mouse; conditions: 25 μM CBX for 30 minutes
Procedure: FIG. 5. Correction of fluid-phase endocytosis by CBX. Hoechst 33342 to label DNA (blue) and saline (mock) or 25 μM CBX was added to cell culture media for 30 minutes. Fluid-phase endocytic uptake in the presence of CBX or PBS was determined by uptake of fluorescent dextran (green). Extracellular dextran was quenched by Red-40 and cells were imaged by epifluorescence. ImageJ was used to calculate fluorescence intensity. Data represent the mean of three independent experiments, error bars±SEM (1-way ANOVA with TUKEY post-hoc, ***, p<0.0001). Scale bar=10 μm.

caveolin-1 = assay: Caveolin-1 transport to the cell membrane, immunofluorescence; format: cell-based, mouse; conditions: CLN3−/− MBEC, 25 μM for 2 h
Procedure: FIG. 6. Carbenoxolone restores caveolin-1 transport to the cell membrane in CLN3-null JNCL mouse brain endothelial cells. CLN3-expressing (CLN3-R) and CLN3-null (CLN3−/−) MBEC were untreated or cultured with 25 μM carbenoxolone for 2 h, then immunofluorescently stained for caveolin-1. Without treatment, caveolin-1 transport to the plasma membrane is impaired in CLN3−/− MBEC. Carbenoxolone restores normal caveolin-1 trafficking to the plasma membrane.

[2] = test system: plasma membrane cholesterol; assay: Cholesterol distribution at the plasma membrane, Amplex Red Cholesterol assay; format: cell-based, mouse; conditions: CBX 25 μM for 2 hours vs mock
Procedure: Plasma membranes are detergent-free fractionated and cholesterol levels in each fraction are quantified by the Amplex Red® Cholesterol assay kit. A representative experiment from four independent experiments is shown with CBX 25 μM for 2 hours or mock treatment.

Cln3−/− mice = assay: Autofluorescent inclusions in cingulate cortex brain sections; format: in vivo, mouse; conditions: gavage 20 mg/kg daily for two weeks, p<0.05
Source text: FIG. 11: CBX treatment reduces Cln3^−/− autofluorescent inclusions. Thin (50 μm) brain sections from mice treated as in were imaged under low magnification in the red channel to detect autofluorescence. Four images were taken of each cingulate cortex, and fluorescence intensity averaged in ImageJ. Data represent a minimum of 4 mice per group. Error bars±SEM (1-way ANOVA with TUKEY post-hoc, *, p<0.05) Scale bar=200 μm.

[3] = Leshchenko et al., 2006; cited from earlier work

CC1(C)[C@@H](OC(=O)CCC(=O)O)CC[C@]2(C)[C@H]3C(=O)C=C4[C@@H]5C[C@@](C)(C(=O)O)CC[C@]5(C)CC[C@@]4(C)[C@]3(C)CC[C@@H]12 [CBX, carbenoxolone]
Cdc42 activity level (Cdc42; CLN3-R (CLN3-expressing) MBEC, CBX 50 μM for 2 h): does not alter
Cdc42 activity (Cdc42; CBX 50 μM for 2 h): effectively normalized
Cdc42 activity (Cdc42; CBX 50 μM for 2 h, listed as Carbenoxolone): significantly reduces
Cdc42-GTP levels (Cdc42; Cln3−/− MBECs, CBX 25 μM for 2 hours vs saline (mock)): corrects; also recorded: reduces
Cell migration (rate of filling scratch gap) [1]: increases cell migration
Cell migration (rate of filling scratch gap) ([1]; listed as Carbenoxolone): normalizes
Fluid-phase endocytosis (fluorescent dextran uptake) (Cln3−/− MBECs): Correction; also recorded: increases fluid-phase endocytosis
Caveolin-1 transport to the plasma membrane (caveolin-1): restores
Cholesterol distribution at the plasma membrane [2]: corrects cholesterol distribution
Autofluorescent inclusions (fluorescence intensity, cingulate cortex) (Cln3−/− mice): reduces
Ability to pass the blood-brain barrier (BBB) [3]: little or no ability
